Experiments:
[1] = test system: Hepcidin (Hamp) mRNA in mouse primary hepatocytes; test: Hepcidin mRNA expression in mouse primary hepatocytes by qRT-PCR; assay type: cell-based; details: for hepcidin mRNA increase / hepcidin −ΔΔCt ±SD: primary hepatocytes from Bmp6-deficient mice, 50 ng/ml each, 2 h30
Experimental: (§1) Mouse primary hepatocytes were isolated from ten-week-old Bmp6-deficient mice using a collagenase perfusion protocol (Lin et al., 2007). The viable hepatocyte population was further purified by a Percoll gradient centrifugation. Hepatocytes were plated in 6-well collagen-coated plates at 7×10^5 cells per well and cultured in DMEM supplemented with 10% FCS and antibiotics for 18 hours. After serum starvation for 5 hours in 0.1% FCS, hepatocytes were stimulated with IL-6 (50 ng/ml) and/or activin B (50 ng/ml), or vehicle, in the presence or absence of LDN-193189 (l μM), and RNA was harvested 1, 2, 3, and 4 hours later.
(§2) Total RNA from mouse liver, human hepatoma cells, or mouse primary hepatocytes, was extracted using Trizol (Invitrogen). cDNA was synthesized using MMLV-RT (Promega). Quantitative PCR (Q-PCR) reactions were prepared with LightCycler® 480 DNA SYBR Green I Master reaction mix (Roche Diagnostics) and run in duplicate on a LightCycler® 480 Instrument (Roche Diagnostics).
(§3) Means of −ΔCt (i.e., Ct Hprt−Ct target)±standard deviation (SD) were calculated for the different groups of mice. Means of −ΔCt values between LPS-challenged and unchallenged mice were compared by Student's t-tests. Because, in addition to inflammation, mouse genotype (wild-type versus Bmp6−/−) may also affect mean −ΔCt values, we used two-way analysis of variance (ANOVA) to test for the effect of both factors and their interaction. Differences between mean −ΔCt at a specific time point after LPS administration and mean −ΔCt at time 0 (−ΔΔCt±SD) were also calculated and point estimations of fold changes induced by LPS administration obtained by raising 2 to the power −ΔΔCt (Yuan et al., 2006). For HepG2 cells or mouse primary hepatocytes, −ΔΔCt values (i.e., −ΔCt treatment+ΔCt vehicle)±SD were obtained for each condition and means of −ΔΔCt were compared to 0 by Student's t-tests.

[2] = test system: Hepcidin (Hamp) mRNA in HepG2 cells; test: Hepcidin mRNA expression in HepG2 cells by qRT-PCR; assay type: cell-based, human; details: for hepcidin mRNA expression increase / hepcidin −ΔΔCt ±SD: HepG2 cells, 50 ng/ml each, peak levels 4 hours after treatment
Experimental: (§4) Human hepatoma cells (HepG2; ATCC) were cultured in high glucose Dulbecco's Modified Eagle Media (DMEM) supplemented with 10% fetal calf serum (FCS) and antibiotics. For stimulation experiments, cells were transferred to 6-well dishes and starved with DMEM containing 0.1% FCS for 5 hours before exposure to IL-6 (50 ng/ml; R&D Systems) and/or activin A (50 ng/ml; R&D) or activin B (50 ng/ml; R&D) for 1 h30, 2 h30, 4 h, 6 h, and 24 h. The pharmacological inhibitor LDN-193189 (100 nM; Axon Medchem), ALK2-Fc (1 μg/mL; R&D), or ALK3-Fc (1 μg/mL; R&D) were added 30 min prior to activin B exposure.
as §2, §3

[3] = test system: Smad1/5/8 phosphorylation in mouse primary hepatocytes; test: Smad1/5/8 phosphorylation in mouse primary hepatocytes by immunoblot; assay type: cell-based
Experimental: as §1
(§5) Livers were homogenized in a FastPrep®-24 Instrument (MP Biomedicals) for 15 sec at 4 m/s. The lysis buffer (50 mM Tris-HCl, pH 8, 150 mM NaCl, 5 mM EDTA, pH 8, 0.1% NP-40) included inhibitors of proteases (complete protease inhibitor cocktail, Roche Applied Science) and of phosphatases (phosphatase inhibitor cocktail 2, Sigma-Aldrich). Liver proteins were quantified using the Bio-Rad Protein Assay kit. HepG2 cells and mouse primary hepatocytes were lysed in RIPA buffer (Sigma-Aldrich) supplemented with protease and phosphatase inhibitors, and proteins were quantified using the Bio-Rad DC Protein Assay.
(§6) Fresh protein extracts were diluted in Laemmli buffer (Sigma-Aldrich), incubated for 5 minutes at 95° C., and subjected to SDS-PAGE. […]

[4] = test system: BMP type I receptors; details: 100 nM; cited from earlier work
[5] = test system: SMAD1/5/8 phosphorylation in HepG2 cells; test: SMAD1/5/8 phosphorylation in HepG2 cells by immunoblot; assay type: cell-based, human; details: 2 h30, 4 or 6 hours; for SMAD1/5/8 phosphorylation: HepG2, 50 ng/ml
Experimental: as §4, §5
Fresh protein extracts were diluted in Laemmli buffer (Sigma-Aldrich), incubated for 5 minutes at 95° C., and subjected to SDS-PAGE. Proteins were then transferred to PVDF membranes (Millipore). Membranes were blocked with 5% of dry milk in TBS-T buffer (10 mM Tris-HCl, pH 7.5, 150 mM NaCl, 0.15% Tween 20). They were incubated with rabbit antibodies to phospho-Smad1/5/8 (Cell Signaling Technology) or phospho-Stat3 (Cell Signaling) at 4° C. overnight, and washed with TBS-T buffer. Following incubation with a goat anti-rabbit IgG antibody (Cell Signaling) conjugated to horseradish peroxidase (HRP), enzyme activity was visualized by an ECL-based detection system (Millipore). Blots were then stripped and reprobed with rabbit antibodies to Smad5 (Epitomics) or Stat3 (Cell Signaling) 2 hours at RT before incubation with the goat anti-rabbit HRP-linked antibody.

[6] = test system: hepcidin expression; details: cultured hepatoma-derived cells, zebrafish, mouse, or rat; cited from earlier work
[7] = test system: Stat3 signaling in mouse primary hepatocytes; test: Stat3 signaling in mouse primary hepatocytes by immunoblot; assay type: cell-based; details: 50 ng/ml, 2 h30
Experimental: as §1, §5, §6

[8] = test system: STAT3 phosphorylation in HepG2 cells; test: STAT3 phosphorylation in HepG2 cells by immunoblot; assay type: cell-based, human; details: HepG2, 50 ng/ml
Experimental: as §4, §5
Fresh protein extracts were diluted in Laemmli buffer (Sigma-Aldrich), incubated for 5 minutes at 95° C., and subjected to SDS-PAGE. Proteins were then transferred to PVDF membranes (Millipore). […]

| Compound | hepcidin mRNA increase [1] | hepcidin −ΔΔCt ±SD [1] | hepcidin mRNA expression increase [2] | hepcidin −ΔΔCt ±SD [2] | SMAD1/5/8 phosphorylation [5] | further results |
| --- | --- | --- | --- | --- | --- | --- |
| c1ccc2c(-c3cnn4cc(-c5ccc(N6CCNCC6)cc5)cnc34)ccnc2c1 [LDN-193189, reference compound] | – | – | – | – | – | effect on upregulation of Hamp gene expression by activin B ([1]; mouse primary hepatocytes, 1 μM, activin B 50 ng/ml): prevented; effect on induction of hepcidin gene expression by activin B ([2]; HepG2, 100 nM added 30 min before activin B (50 ng/ml), 2 h30, 4 or 6 hours after stimulation): completely abolished; effect on Smad1/5/8 phosphorylation induced by activin B ([3]; 1 μM, activin B 50 ng/ml for 2 h30): prevented induction of Smad1/5/8 phosphorylation; activity of BMP type I receptors [4]: inhibit activity of BMP type I receptors; effect on Smad1/5/8 phosphorylation induced by activin B ([5]; HepG2, 100 nM added 30 min before activin B (50 ng/ml)): completely abolished; induction of hepcidin expression by IL-6, turpentine, or group A streptococcal peptidoglycan-polysaccharide [6]: blocks induction of hepcidin expression |
| IL-6: interleukin-6 cytokine, R&D Systems | about 1.8 fold | 0.82±0.24 | about 6 fold | 2.63±0.26 | – | Stat3 signaling [7]: strong activation of Stat3 signaling; STAT3 phosphorylation [8]: induces STAT3 phosphorylation |
| activin A | – | – | – | – | not shared with activin A | – |
| activin B | about 7 fold | 2.81±0.92 | about 13 fold | 3.71±0.46 | induces the phosphorylation of the SMAD effectors 1, 5 and 8 | SMAD1/5/8 phosphorylation ([3]; 50 ng/ml, 2 h30): induces |
